The results in this text go back to patent US20240174671A1, “New 2,3-Dihydro-1H-pyrrolo[3,2-b]pyridine Derivatives as Sigma Ligands” (ACONDICIONAMIENTO TARRASENSE, priority 2021, published 2024).

For one assay, the target named is T1, human σ1 receptor (Homo sapiens, UniProt Q99720).
T1 construct: expressed in transfected cells; host or cells: HEK-293
Kind of assay: Human σ1 receptor radioligand assay ([3H](+)-pentazocine). The following applies: transfected HEK-293 membranes, 5 nM [3H](+)-pentazocine, 37° C., 120 minutes; read-out: Binding σ-[…] (binding to σ1-receptor expressed as Ki). The class given is binding. The gist of the method: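 Binding used [3H](+)-pentazocine, 120 min at 37° C, with non-specific binding defined by 10 μM haloperidol. Bound radioligand was collected by filtration, washed with ice-cold 10 mM Tris-HCl pH 7.4 and counted by scintillation.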

In a further assay the target is T2, human σ2/TMEM97 receptor (Homo sapiens, UniProt Q5BJF2).
T2 construct: expressed in transfected cells; host or cells: HEK-293
Kind of assay: Binding assay to human σ2/TMEM97 receptor ([3H]-DTG). The gist of the method: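 Membranes from transfected HEK-293 cells incubated with 10 nM [3H]-DTG in 50 mM Tris-HCl pH 8.0, 120 min at 25 °C; non-specific binding defined with 10 μM haloperidol. Bound radioactivity counted after filtration; compounds tested as % inhibition at 1 or 10 μM or at five concentrations for Ki.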

Setting [1] is: transfected HEK-293 membranes, 10 nM [3H]-DTG, 25° C., 120 minutes, read-out: Binding σ-[…] (binding to σ2-receptor expressed as Ki).

Read-outs that look alike come from different tables or passages of the source.

T2 sequence (Q5BJF2 whole entry): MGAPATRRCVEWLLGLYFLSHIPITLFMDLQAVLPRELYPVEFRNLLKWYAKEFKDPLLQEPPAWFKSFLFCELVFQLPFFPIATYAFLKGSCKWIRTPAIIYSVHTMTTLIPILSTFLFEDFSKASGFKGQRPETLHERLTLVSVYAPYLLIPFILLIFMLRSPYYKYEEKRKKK
T1 sequence (Q99720 whole entry): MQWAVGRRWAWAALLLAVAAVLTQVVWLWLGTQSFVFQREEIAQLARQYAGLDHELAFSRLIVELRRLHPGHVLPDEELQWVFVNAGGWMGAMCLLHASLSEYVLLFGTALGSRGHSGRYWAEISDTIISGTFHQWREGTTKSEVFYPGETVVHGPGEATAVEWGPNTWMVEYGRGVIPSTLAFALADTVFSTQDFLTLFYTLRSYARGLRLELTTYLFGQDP

The term Ki denotes the dissociation constant of the complex between target and ligand, obtained from inhibition or displacement. With `Cc1ccc2c(n1)C(C)(C)CN2C(=O)N1CC2(CN(Cc3ccccc3)C2)C1` [Example 81, (6-benzyl-2,6-diazaspiro[3.3]heptan-2-yl)(3,3,5-trimethyl-2,3-dihydro-1H-pyrrolo[3,2-b]pyridin-1-yl)methanone], the Ki on human σ1 receptor was under 100 nM; at human σ2/TMEM97 receptor (setting [1]), 500 to 1000 nM.

Consider `Cc1ccc2c(n1)C(C)(C)CN2C(=O)NCC1CN(Cc2ccccc2)C1` [Example 82, N-((1-benzylazetidin-3-yl)methyl)-3,3,5-trimethyl-2,3-dihydro-1H-pyrrolo[3,2-b]pyridine-1-carboxamide], for which the Ki at human σ1 receptor is 100 to 500 nM; on human σ2/TMEM97 receptor (setting [1]), under 100 nM.

Consider `CN(Cc1cccc(C#N)c1)C1CCN(C(=O)N2CC(C)(C)c3ncccc32)CC1` [Example 83, 3-(((1-(3,3-dimethyl-2,3-dihydro-1H-pyrrolo[3,2-b]pyridine-1-carbonyl)piperidin-4-yl)(methyl)amino)methyl)benzonitrile], for which the Ki on human σ1 receptor is over 1000 nM; at human σ2/TMEM97 receptor (setting [1]), 100 to 500 nM.

Consider `CN(Cc1ccc(C#N)cc1)C1CCN(C(=O)N2CC(C)(C)c3ncccc32)CC1` [Example 84, 4-(((1-(3,3-dimethyl-2,3-dihydro-1H-pyrrolo[3,2-b]pyridine-1-carbonyl)piperidin-4-yl)(methyl)amino)methyl)benzonitrile], for which the Ki is 100 to 500 nM at human σ1 receptor and under 100 nM at human σ2/TMEM97 receptor (setting [1]).

Take `CN(Cc1cccc(F)c1)C1CCN(C(=O)N2CC(C)(C)c3ncccc32)CC1` [Example 85, (3,3-dimethyl-2,3-dihydro-1H-pyrrolo[3,2-b]pyridin-1-yl)(4-((3-fluorobenzyl)(methyl)amino)piperidin-1-yl)methanone]: the values for the Ki at human σ1 receptor and on human σ2/TMEM97 receptor (setting [1]) were 500 to 1000 nM and 100 to 500 nM, respectively.

For the compound `CN(Cc1ccc(F)cc1)C1CCN(C(=O)N2CC(C)(C)c3ncccc32)CC1` [Example 86, (3,3-dimethyl-2,3-dihydro-1H-pyrrolo[3,2-b]pyridin-1-yl)(4-((4-fluorobenzyl)(methyl)amino)piperidin-1-yl)methanone], the Ki is 500 to 1000 nM at human σ1 receptor and under 100 nM on human σ2/TMEM97 receptor (setting [1]).

`CN(Cc1ccc(C#N)c(F)c1)C1CCN(C(=O)N2CC(C)(C)c3ncccc32)CC1` [Example 87, 4-(((1-(3,3-dimethyl-2,3-dihydro-1H-pyrrolo[3,2-b]pyridine-1-carbonyl)piperidin-4-yl)(methyl)amino)methyl)-2-fluorobenzonitrile]: the Ki at human σ1 receptor is 500 to 1000 nM; on human σ2/TMEM97 receptor (setting [1]), under 100 nM.

As to `CC1(C)CN(C(=O)NC2CN(Cc3ccccc3)C2)c2cccnc21` [Example 88, N-(1-benzylazetidin-3-yl)-3,3-dimethyl-2,3-dihydro-1H-pyrrolo[3,2-b]pyridine-1-carboxamide], the Ki at human σ1 receptor is 100 to 500 nM; at human σ2/TMEM97 receptor (setting [1]) it was over 1000 nM.

Consider `CC1(C)CN(C(=O)N2CCC3(CCN(Cc4ccccc4)CC3)C2)c2cccnc21` [Example 89, (8-benzyl-2,8-diazaspiro[4.5]decan-2-yl)(3,3-dimethyl-2,3-dihydro-1H-pyrrolo[3,2-b]pyridin-1-yl)methanone], for which the inhibitory constant (Ki) on human σ1 receptor and on human σ2/TMEM97 receptor (setting [1]) was under 100 nM in each case.

On to `CC1(C)CN(C(=O)N2CCC3(CCN(Cc4cccc(C#N)c4)CC3)C2)c2cccnc21` [Example 90, 3-((2-(3,3-dimethyl-2,3-dihydro-1H-pyrrolo[3,2-b]pyridine-1-carbonyl)-2,8-diazaspiro[4.5]decan-8-yl)methyl)benzonitrile], for which the figures for the inhibition constant Ki on human σ1 receptor and on human σ2/TMEM97 receptor (setting [1]) were 100 to 500 nM and under 100 nM, respectively.

For the compound `Cc1ccc2c(n1)C(C)(C)CN2C(=O)N1CCC2(CCN(CCc3ccccc3)CC2)C1` [Example 91, (8-phenethyl-2,8-diazaspiro[4.5]decan-2-yl)(3,3,5-trimethyl-2,3-dihydro-1H-pyrrolo[3,2-b]pyridin-1-yl)methanone], the figures for the Ki at human σ1 receptor and at human σ2/TMEM97 receptor were 500 to 1000 nM and under 100 nM, respectively.

`Cc1ccc2c(n1)C(C)(C)CN2C(=O)N1CCC2(CCN(Cc3cccc(C#N)c3)CC2)C1` [Example 92, 3-((2-(3,3,5-trimethyl-2,3-dihydro-1H-pyrrolo[3,2-b]pyridine-1-carbonyl)-2,8-diazaspiro[4.5]decan-8-yl)methyl)benzonitrile]: the Ki was over 1000 nM on human σ1 receptor and under 100 nM at human σ2/TMEM97 receptor (setting [1]).

For the compound `Cc1ccc2c(n1)C(C)(C)CN2C(=O)N1CCC2(CC1)CN(Cc1ccccc1)C2` [Example 93, (2-benzyl-2,7-diazaspiro[3.5]nonan-7-yl)(3,3,5-trimethyl-2,3-dihydro-1H-pyrrolo[3,2-b]pyridin-1-yl)methanone], the Ki at human σ1 receptor and on human σ2/TMEM97 receptor (setting [1]) was 100 to 500 nM each time.

Consider `Cc1ccc2c(n1)C(C)(C)CN2C(=O)N1CCC2(CCN(Cc3ccccn3)CC2)C1` [Example 94, (8-(pyridin-2-ylmethyl)-2,8-diazaspiro[4.5]decan-2-yl)(3,3,5-trimethyl-2,3-dihydro-1H-pyrrolo[3,2-b]pyridin-1-yl)methanone], for which the results for the Ki on human σ1 receptor and at human σ2/TMEM97 receptor (setting [1]) were over 1000 nM and 100 to 500 nM, respectively.

On to `COc1cccc(CN2CCC3(CC2)CCN(C(=O)N2CC(C)(C)c4nc(C)ccc42)C3)c1` [Example 95, (8-(3-methoxybenzyl)-2,8-diazaspiro[4.5]decan-2-yl)(3,3,5-trimethyl-2,3-dihydro-1H-pyrrolo[3,2-b]pyridin-1-yl)methanone], for which the Ki is over 1000 nM at human σ1 receptor and under 100 nM on human σ2/TMEM97 receptor (setting [1]).

Consider `Cc1ccc2c(n1)C(C)(C)CN2C(=O)N1CCC2(CCN(C(C)c3ccccc3)CC2)C1` (stereo not drawn) [Example 96, (8-(1-phenylethyl)-2,8-diazaspiro[4.5]decan-2-yl)(3,3,5-trimethyl-2,3-dihydro-1H-pyrrolo[3,2-b]pyridin-1-yl)methanone], for which the Ki on human σ1 receptor and on human σ2/TMEM97 receptor (setting [1]) was 100 to 500 nM each time.

For `O=C(N1CC[C@H](NCCc2ccccc2)C1)N1CCc2ncccc21` [Example 97, (S)-(2,3-dihydro-1H-pyrrolo[3,2-b]pyridin-1-yl)(3-(phenethylamino)pyrrolidin-1-yl)methanone], the Ki on human σ1 receptor was 500 to 1000 nM; on human σ2/TMEM97 receptor (setting [1]) it was over 1000 nM.

On to `Cc1ccc2c(n1)C(C)(C)CN2C(=O)N1CCC2(CCN(Cc3cccnc3)CC2)C1` [Example 98, (8-(pyridin-3-ylmethyl)-2,8-diazaspiro[4.5]decan-2-yl)(3,3,5-trimethyl-2,3-dihydro-1H-pyrrolo[3,2-b]pyridin-1-yl)methanone], for which the Ki on human σ1 receptor is over 1000 nM; at human σ2/TMEM97 receptor (setting [1]), under 100 nM.

As for `Cc1ccc2c(n1)C(C)(C)CN2C(=O)N1CCC2(CCN(Cc3ccncc3)CC2)C1` [Example 99, (8-(pyridin-4-ylmethyl)-2,8-diazaspiro[4.5]decan-2-yl)(3,3,5-trimethyl-2,3-dihydro-1H-pyrrolo[3,2-b]pyridin-1-yl)methanone], the Ki on human σ1 receptor is over 1000 nM; at human σ2/TMEM97 receptor (setting [1]) it was under 100 nM.

As for `Cc1ccc2c(n1)C(C)(C)CN2C(=O)N1CCC2(CCN(CCC(C)C)CC2)C1` [Example 100, (8-isopentyl-2,8-diazaspiro[4.5]decan-2-yl)(3,3,5-trimethyl-2,3-dihydro-1H-pyrrolo[3,2-b]pyridin-1-yl)methanone], the inhibition constant Ki on human σ1 receptor was 500 to 1000 nM; on human σ2/TMEM97 receptor (setting [1]), under 100 nM.

`O=C(N1CCC[C@H](NCCc2ccccc2)C1)N1CCc2ncccc21` [Example 101, (S)-(2,3-dihydro-1H-pyrrolo[3,2-b]pyridin-1-yl)(3-(phenethylamino)piperidin-1-yl)methanone]: the inhibition constant (Ki) on human σ1 receptor was over 1000 nM; at human σ2/TMEM97 receptor (setting [1]) it was 100 to 500 nM.

`Cc1ccc2c(n1)C(C)(C)CN2C(=O)N1CCC2(CCN(Cc3cccc(S(C)(=O)=O)c3)CC2)C1` [Example 102, (8-(3-(methylsulfonyl)benzyl)-2,8-diazaspiro[4.5]decan-2-yl)(3,3,5-trimethyl-2,3-dihydro-1H-pyrrolo[3,2-b]pyridin-1-yl)methanone]: the Ki on human σ1 receptor is over 1000 nM; on human σ2/TMEM97 receptor (setting [1]), under 100 nM.

For `COc1ccc(CN2CCC3(CC2)CCN(C(=O)N2CC(C)(C)c4nc(C)ccc42)C3)cc1` [Example 103, (8-(4-methoxybenzyl)-2,8-diazaspiro[4.5]decan-2-yl)(3,3,5-trimethyl-2,3-dihydro-1H-pyrrolo[3,2-b]pyridin-1-yl)methanone], the figures for the Ki on human σ1 receptor and at human σ2/TMEM97 receptor (setting [1]) were 100 to 500 nM and under 100 nM, respectively.

Consider `CC1(C)CN(C(=O)NC2CC3(CCN(Cc4ccccc4)CC3)C2)c2cccnc21` [Example 104, N-(7-benzyl-7-azaspiro[3.5]nonan-2-yl)-3,3-dimethyl-2,3-dihydro-1H-pyrrolo[3,2-b]pyridine-1-carboxamide], for which the inhibition constant (Ki) on human σ1 receptor and at human σ2/TMEM97 receptor (setting [1]) was 100 to 500 nM in each case.

Take `Cc1ccc2c(n1)C(C)(C)CN2C(=O)N1CCC2(CCN(CC3CCOCC3)CC2)C1` [Example 105, (8-((tetrahydro-2H-pyran-4-yl)methyl)-2,8-diazaspiro[4.5]decan-2-yl)(3,3,5-trimethyl-2,3-dihydro-1H-pyrrolo[3,2-t]pyridin-1-yl)methanone]: the results for the Ki at human σ1 receptor and at human σ2/TMEM97 receptor (setting [1]) were 500 to 1000 nM and under 100 nM, respectively.

On to `CC(C)CCN1CCC(CNC(=O)N2CC(C)(C)c3ncccc32)CC1` [Example 106, N-((1-isopentylpiperidin-4-yl)methyl)-3,3-dimethyl-2,3-dihydro-1H-pyrrolo[3,2-b]pyridine-1-carboxamide], for which the Ki lay within 500 to 1000 nM on human σ1 receptor and 100 to 500 nM on human σ2/TMEM97 receptor (setting [1]).

Turning to `Cc1ccc2c(n1)C(C)(C)CN2C(=O)N1CCC2(CCN(Cc3ccc(F)c(C#N)c3)CC2)C1` [Example 107, 2-fluoro-5-((2-(3,3,5-trimethyl-2,3-dihydro-1H-pyrrolo[3,2-b]pyridine-1-carbonyl)-2,8-diazaspiro[4.5]decan-8-yl)methyl)benzonitrile], the Ki was over 1000 nM at human σ1 receptor and under 100 nM at human σ2/TMEM97 receptor (setting [1]).
